This note sets out measurements from patent US20250346616A1 (DIZAL (JIANGSU) PHARMACEUTICAL CO., LTD., priority 2022, published 2025).

One test addresses Recombinant ROCK1 (Homo sapiens (Human), UniProt Q13464). Description: Lance Ultra Kinase Assay, ROCK1 inhibition. It is filed as biochemical. Conditions: ATP at Km, 30 min pre-incubation, 1 h reaction.
A further test addresses Recombinant ROCK2 (Homo sapiens (Human), UniProt O75116). Description: Lance Ultra Kinase Assay, ROCK2 inhibition. It is filed as biochemical. Conditions: ATP at Km, 30 min pre-incubation, 1 h reaction.

Molecules are shown by their SMILES.

Sequence of Recombinant ROCK1 (Q13464 whole entry): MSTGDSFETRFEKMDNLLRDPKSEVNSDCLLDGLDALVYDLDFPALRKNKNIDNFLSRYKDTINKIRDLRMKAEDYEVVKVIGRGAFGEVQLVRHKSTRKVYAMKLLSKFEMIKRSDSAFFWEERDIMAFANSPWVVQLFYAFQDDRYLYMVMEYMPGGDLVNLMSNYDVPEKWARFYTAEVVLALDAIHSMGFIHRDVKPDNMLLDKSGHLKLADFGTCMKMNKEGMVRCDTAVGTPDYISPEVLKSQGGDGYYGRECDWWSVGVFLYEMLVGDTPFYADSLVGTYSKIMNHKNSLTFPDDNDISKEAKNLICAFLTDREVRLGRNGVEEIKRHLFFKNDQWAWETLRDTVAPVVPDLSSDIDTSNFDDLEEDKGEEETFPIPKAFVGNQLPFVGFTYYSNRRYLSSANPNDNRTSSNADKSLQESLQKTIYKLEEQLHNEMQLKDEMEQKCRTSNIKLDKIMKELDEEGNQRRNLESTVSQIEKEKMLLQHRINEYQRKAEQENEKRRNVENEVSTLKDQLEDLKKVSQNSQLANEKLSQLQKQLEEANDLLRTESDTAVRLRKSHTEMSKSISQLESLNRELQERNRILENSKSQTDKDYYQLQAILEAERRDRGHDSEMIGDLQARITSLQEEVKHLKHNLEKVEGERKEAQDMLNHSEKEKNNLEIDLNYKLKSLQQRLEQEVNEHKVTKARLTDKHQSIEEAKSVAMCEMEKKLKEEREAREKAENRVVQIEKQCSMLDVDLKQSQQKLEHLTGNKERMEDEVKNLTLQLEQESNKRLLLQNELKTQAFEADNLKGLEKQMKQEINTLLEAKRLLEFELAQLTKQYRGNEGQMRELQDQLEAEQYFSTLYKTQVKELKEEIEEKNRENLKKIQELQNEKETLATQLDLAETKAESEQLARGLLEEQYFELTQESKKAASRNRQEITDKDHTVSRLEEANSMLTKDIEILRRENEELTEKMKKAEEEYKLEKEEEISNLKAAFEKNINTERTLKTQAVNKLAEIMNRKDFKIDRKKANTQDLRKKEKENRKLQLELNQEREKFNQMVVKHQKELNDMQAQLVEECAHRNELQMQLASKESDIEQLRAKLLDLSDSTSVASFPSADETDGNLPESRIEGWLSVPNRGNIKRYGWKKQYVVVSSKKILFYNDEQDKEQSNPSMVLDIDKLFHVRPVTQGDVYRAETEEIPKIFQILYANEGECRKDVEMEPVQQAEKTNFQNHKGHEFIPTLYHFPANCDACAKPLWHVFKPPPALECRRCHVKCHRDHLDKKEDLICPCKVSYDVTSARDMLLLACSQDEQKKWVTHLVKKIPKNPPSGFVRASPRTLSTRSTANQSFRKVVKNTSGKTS
Sequence of Recombinant ROCK2 (O75116 whole entry): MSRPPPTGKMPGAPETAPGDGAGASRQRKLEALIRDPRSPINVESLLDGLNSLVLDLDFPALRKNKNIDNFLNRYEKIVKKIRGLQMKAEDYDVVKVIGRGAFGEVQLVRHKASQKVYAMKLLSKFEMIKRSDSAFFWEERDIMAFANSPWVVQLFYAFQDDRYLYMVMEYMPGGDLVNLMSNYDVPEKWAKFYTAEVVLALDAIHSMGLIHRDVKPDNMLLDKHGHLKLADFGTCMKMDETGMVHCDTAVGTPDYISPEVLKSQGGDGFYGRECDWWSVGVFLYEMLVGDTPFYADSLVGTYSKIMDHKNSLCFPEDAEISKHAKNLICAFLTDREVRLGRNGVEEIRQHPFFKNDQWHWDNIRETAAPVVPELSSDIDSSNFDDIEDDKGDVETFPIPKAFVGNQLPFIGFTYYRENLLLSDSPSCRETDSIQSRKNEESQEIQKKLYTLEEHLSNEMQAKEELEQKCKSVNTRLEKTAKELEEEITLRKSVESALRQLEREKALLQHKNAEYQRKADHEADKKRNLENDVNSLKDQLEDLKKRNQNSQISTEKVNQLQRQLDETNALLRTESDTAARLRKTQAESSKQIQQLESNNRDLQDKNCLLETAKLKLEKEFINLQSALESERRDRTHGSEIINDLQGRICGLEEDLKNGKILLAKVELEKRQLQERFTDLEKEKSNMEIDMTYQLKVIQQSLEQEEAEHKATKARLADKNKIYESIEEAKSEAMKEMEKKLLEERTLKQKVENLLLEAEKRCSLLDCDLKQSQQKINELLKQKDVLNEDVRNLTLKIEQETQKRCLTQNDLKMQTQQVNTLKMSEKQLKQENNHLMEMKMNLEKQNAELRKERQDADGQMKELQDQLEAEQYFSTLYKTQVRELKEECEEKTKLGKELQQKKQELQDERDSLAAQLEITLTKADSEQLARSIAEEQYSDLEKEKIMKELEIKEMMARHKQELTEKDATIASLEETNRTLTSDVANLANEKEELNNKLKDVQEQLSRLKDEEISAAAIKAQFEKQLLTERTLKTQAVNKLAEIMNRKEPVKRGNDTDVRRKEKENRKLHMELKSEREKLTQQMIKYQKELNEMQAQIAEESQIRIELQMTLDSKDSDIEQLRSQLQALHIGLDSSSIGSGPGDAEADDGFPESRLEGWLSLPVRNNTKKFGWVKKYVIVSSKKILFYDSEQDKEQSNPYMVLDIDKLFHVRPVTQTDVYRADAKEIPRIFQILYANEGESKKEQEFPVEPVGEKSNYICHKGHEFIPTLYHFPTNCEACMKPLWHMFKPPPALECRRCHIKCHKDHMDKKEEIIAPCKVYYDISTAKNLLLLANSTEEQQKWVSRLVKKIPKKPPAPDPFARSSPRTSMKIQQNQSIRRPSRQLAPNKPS

For orientation: IC50 means the midpoint of a concentration-inhibition curve. Regarding `Cc1cccc(C(CN)C(=O)Nc2cccc3c(-c4cn[nH]c4)c[nH]c23)n1` (racemic) [Example 93, 3-amino-2-(6-methylpyridin-2-yl)-N-[3-(1H-pyrazol-4-yl)-1H-indol-7-yl]propanamide], the concentration for half-maximal inhibition (IC50) at Recombinant ROCK1 was 20 nM; at Recombinant ROCK2 it was 13 nM.
`NCC(C(=O)Nc1cccc2c(-c3cn[nH]c3)c[nH]c12)C1CCOC1` (racemic) [Example 94, N-(3-(1H-pyrazol-4-yl)-1H-indol-7-yl)-3-amino-2-(tetrahydrofuran-3-yl)propanamide]: the half-maximal inhibitory concentration (IC50) on Recombinant ROCK1 came out at 6.5 nM; on Recombinant ROCK2, 3 nM.
Take `NCC(C(=O)Nc1cccc2c(-c3cn[nH]c3)c[nH]c12)C1CCCC1` (racemic) [Example 95, 3-amino-2-cyclopentyl-N-[3-(1H-pyrazol-4-yl)-1H-indol-7-yl]propanamide]: the figures for the IC50 on Recombinant ROCK1 and at Recombinant ROCK2 were 3.7 nM and 2.3 nM, respectively.
Regarding `NCC(C(=O)Nc1cccc2c(-c3cn[nH]c3)c[nH]c12)C1CCOC1` (racemic) [Example 96, N-(3-(1H-pyrazol-4-yl)-1H-indol-7-yl)-3-amino-2-(tetrahydrofuran-3-yl)propanamide], the values for the IC50 at Recombinant ROCK1 and on Recombinant ROCK2 were 7.3 nM and 4 nM, respectively.
For `CP(C)(=O)c1ccc(C(CN)C(=O)Nc2cccc3c(-c4cn[nH]c4)c[nH]c23)cc1` (racemic) [Example 97, 3-amino-2-[4-(dimethylphosphoryl)phenyl]-N-[3-(1H-pyrazol-4-yl)-1H-Indol-7-yl]propanamide], in that order: 122 nM and 28 nM.
Regarding `NCC(C(=O)Nc1cccc2c(-c3cn[nH]c3)c[nH]c12)c1ccccn1` (racemic) [Example 98, 3-amino-N-[3-(1H-pyrazol-4-yl)-1H-indol-7-yl]-2-(pyridin-2-yl)propanamide], the IC50 at Recombinant ROCK1 is 9.2 nM; at Recombinant ROCK2, 4.3 nM.
Regarding `CC(=O)NCc1ccc(C(CN)C(=O)Nc2cccc3c(-c4cn[nH]c4)c[nH]c23)cc1` (racemic) [Example 99, N-(3-(1H-pyrazol-4-yl)-1H-indol-7-yl)-2-(4-(acetamidomethyl)phenyl)-3-aminopropanamide], the half-inhibitory concentration (IC50) amounted to 3.2 nM on Recombinant ROCK1 and 1.1 nM at Recombinant ROCK2.
As for `COc1cc(C(CN)C(=O)Nc2cccc3c(-c4cn[nH]c4)c[nH]c23)ccc1CO` (racemic) [Example 101, 3-amino-2-[4-(hydroxymethyl)-3-methoxyphenyl]-N-[3-(1H-pyrazol-4-yl)-1H-indol-7-yl]propanamide], the half-inhibitory concentration (IC50) worked out at 1.6 nM on Recombinant ROCK1 and 0.81 nM at Recombinant ROCK2.
For `COc1cncc(C(CN)C(=O)Nc2cccc3c(-c4cn[nH]c4)c[nH]c23)c1` (racemic) [Example 102, 3-amino-2-(5-methoxypyridin-3-yl)-N-[3-(1H-pyrazol-4-yl)-1H-indol-7-yl]propanamide], in that order: 1.3 nM and 0.56 nM.
In the case of `Cn1ccc(C(CN)C(=O)Nc2cccc3c(-c4cn[nH]c4)c[nH]c23)cc1=O` (racemic) [Example 103, 3-amino-2-(1-methyl-2-oxopyridin-4-yl)-N-[3-(1H-pyrazol-4-yl)-1H-indol-7-yl]propanamide], the IC50 stood at 1.4 nM at Recombinant ROCK1 and 0.53 nM at Recombinant ROCK2.
For `COc1ccc(C(N)C(=O)Nc2cccc3c(-c4cn[nH]c4)c[nH]c23)cc1` (racemic) [Example 104, 2-amino-2-(4-methoxyphenyl)-N-[3-(1H-pyrazol-4-yl)-1H-indol-7-yl]acetamide], in that order: 2 nM and 0.9 nM.
Take `CC(N)(C(=O)Nc1cccc2c(-c3cn[nH]c3)c[nH]c12)c1ccccc1` (racemic) [Example 107, 2-amino-2-phenyl-N-[3-(1H-pyrazol-4-yl)-1H-indol-7-yl]propanamide]: the IC50 at Recombinant ROCK1 amounted to 6 nM; at Recombinant ROCK2, 3.7 nM.
The matching figures for `NC(C(=O)Nc1cccc2c(-c3cn[nH]c3)c[nH]c12)C1CCCCC1` (racemic) [Example 122, N-(3-(1H-pyrazol-4-yl)-1H-indol-7-yl)-2-amino-2-cyclohexylacetamide]: 11 nM and 8.9 nM.
In the case of `CN1CCN(C(C(=O)Nc2cccc3c(-c4cn[nH]c4)c[nH]c23)C2CCCCC2)CC1` (racemic) [Example 129, 2-cyclohexyl-2-(4-methylpiperazin-1-yl)-N-[3-(1H-pyrazol-4-yl)-1H-indol-7-yl]acetamide], the IC50 on Recombinant ROCK1 and at Recombinant ROCK2 was 1.7 nM in each case.
`O=C(Nc1cccc2c(-c3cn[nH]c3)c[nH]c12)C1CNCc2ccccc21` (racemic) [Example 133, N-(3-(1H-pyrazol-4-yl)-1H-indol-7-yl)-1,2,3,4-tetrahydroisoquinoline-4-carboxamide]: the half-inhibitory concentration (IC50) on Recombinant ROCK1 amounted to 44 nM; at Recombinant ROCK2, 31 nM.
For the molecule `NCC(NC(=O)c1cccc2c(-c3cn[nH]c3)c[nH]c12)c1ccccc1` (racemic) [Example 134, N-(2-amino-1-phenylethyl)-3-(1H-pyrazol-4-yl)-1H-indole-7-carboxamide], the IC50 on Recombinant ROCK1 was determined as 2.6 nM; at Recombinant ROCK2, 0.88 nM.
As to `NCCC(NC(=O)c1cccc2c(-c3cn[nH]c3)c[nH]c12)c1ccccc1` (racemic) [Example 140, N-(3-amino-1-phenylpropyl)-3-(1H-pyrazol-4-yl)-1H-indole-7-carboxamide], the IC50 on Recombinant ROCK1 was 2.8 nM; at Recombinant ROCK2 it was 0.86 nM.
Regarding `CN1CCC(C(NC(=O)c2cccc3c(-c4cn[nH]c4)c[nH]c23)C2CCCCC2)CC1` (racemic) [Example 143, N-[cyclohexyl (1-methylpiperidin-4-yl)methyl]-3-(1H-pyrazol-4-yl)-1H-indole-7-carboxamide], the 50% inhibitory concentration (IC50) at Recombinant ROCK1 was 397 nM; at Recombinant ROCK2 it was 315 nM.
Consider `NCC(NC(=O)c1cccc2c(-c3cn[nH]c3)c[nH]c12)c1ccc(CO)cc1` (racemic) [Example 146, N-(2-amino-1-(4-(hydroxymethyl)phenyl)ethyl)-3-(1H-pyrazol-4-yl)-1H-indole-7-carboxamide], for which the concentration for half-maximal inhibition (IC50) at Recombinant ROCK1 turned out to be 18 nM; at Recombinant ROCK2, 4.9 nM.
Take `NCC(Cc1ccccc1)NC(=O)c1cccc2c(-c3cn[nH]c3)c[nH]c12` (racemic) [Example 147, N-(1-amino-3-phenylpropan-2-yl)-3-(1H-pyrazol-4-yl)-1H-indole-7-carboxamide]: the half-maximal inhibitory concentration (IC50) at Recombinant ROCK1 stood at 0.88 nM; on Recombinant ROCK2, 0.4 nM.
On to `CP(C)(=O)c1cccc(C(CN)NC(=O)c2cccc3c(-c4cn[nH]c4)c[nH]c23)c1` (racemic) [Example 151, (rac)-N-{2-amino-1-[3-(dimethylphosphoryl)phenyl]ethyl}-3-(1H-pyrazol-4-yl)-1H-indole-7-carboxamide], for which the IC50 at Recombinant ROCK1 was determined as 204 nM; at Recombinant ROCK2 it was 71 nM.
In the case of `Cc1ccc(C(=O)OCc2ccc(C(CN)C(=O)Nc3cccc4c(-c5cn[nH]c5)c[nH]c34)cc2)c(C)c1` (single isomer, unassigned) [Example 5], the values for the IC50 on Recombinant ROCK1 and at Recombinant ROCK2 were 8 nM and 4.3 nM, respectively.
As for `Cc1ccc(C(=O)OCc2ccc(C(CN)C(=O)Nc3cccc4c(-c5cn[nH]c5)c[nH]c34)cc2)c(C)c1` (single isomer, unassigned) [Example 6], the results for the IC50 at Recombinant ROCK1 and at Recombinant ROCK2 were 442 nM and 247 nM, respectively.
Turning to `COc1cccc(C(CN)C(=O)Nc2cccc3c(-c4cn[nH]c4)c[nH]c23)c1` (single isomer, unassigned) [Example 17, N-(3-(1H-pyrazol-4-yl)-1H-indol-7-yl)-3-amino-2-(3-methoxyphenyl)propanamide], the IC50 at Recombinant ROCK1 came out at 31 nM; on Recombinant ROCK2 it was 15 nM.
For the molecule `N#Cc1cccc(C(CN)C(=O)Nc2cccc3c(-c4cn[nH]c4)c[nH]c23)c1` (single isomer, unassigned) [Example 21, N-(3-(1H-pyrazol-4-yl)-1H-indol-7-yl)-3-amino-2-(3-cyanophenyl)propanamide], the half-inhibitory concentration (IC50) on Recombinant ROCK1 came to 125 nM; at Recombinant ROCK2, 70 nM.
For the molecule `NCC(C(=O)Nc1cccc2c(-c3cn[nH]c3)c[nH]c12)C1CCCCC1` (single isomer, unassigned) [Example 24, N-(3-(1H-pyrazol-4-yl)-1H-indol-7-yl)-3-amino-2-cyclohexylpropanamide], the concentration for half-maximal inhibition (IC50) on Recombinant ROCK1 was determined as 4 nM; at Recombinant ROCK2, 3 nM.
As for `NCC(C(=O)Nc1cccc2c(-c3cn[nH]c3)c[nH]c12)C1CCOCC1` (single isomer, unassigned) [Example 27, N-(3-(1H-pyrazol-4-yl)-1H-indol-7-yl)-3-amino-2-(tetrahydro-2H-pyran-4-yl)propanamide], the figures for the 50% inhibitory concentration (IC50) at Recombinant ROCK1 and on Recombinant ROCK2 were 87 nM and 66 nM, respectively.
Take `COc1cccc([C@@H](C(=O)Nc2cccc3c(-c4cn[nH]c4)c[nH]c23)C2CCN(C)CC2)c1` (single isomer, unassigned) [Example 29, N-(3-(1H-pyrazol-4-yl)-1H-indol-7-yl)-2-(3-methoxyphenyl)-2-(1-methylpiperidin-4-yl) acetamide]: the half-inhibitory concentration (IC50) came to 59 nM at Recombinant ROCK1 and 23 nM on Recombinant ROCK2.
For `COc1cccc([C@H](C(=O)Nc2cccc3c(-c4cn[nH]c4)c[nH]c23)C2CCN(C)CC2)c1` (single isomer, unassigned) [Example 30, N-(3-(1H-pyrazol-4-yl)-1H-indol-7-yl)-2-(3-methoxyphenyl)-2-(1-methylpiperidin-4-yl) acetamide], in that order: 3.2 nM and 1.1 nM.
Take `NCC(C(=O)Nc1cccc2c(-c3cn[nH]c3)c[nH]c12)c1cccnc1` (single isomer, unassigned) [Example 33, N-(3-(1H-pyrazol-4-yl)-1H-indol-7-yl)-3-amino-2-(pyridin-3-yl)propanamide]: the half-inhibitory concentration (IC50) on Recombinant ROCK1 stood at 97 nM; at Recombinant ROCK2 it was 50 nM.
In the case of `COc1cccc(C(CN2CCN(C)CC2)C(=O)Nc2cccc3c(-c4cn[nH]c4)c[nH]c23)c1` (single isomer, unassigned) [Example 35, N-(3-(1H-pyrazol-4-yl)-1H-indol-7-yl)-2-(3-methoxyphenyl)-3-(4-methylpiperazin-1-yl)propanamide], the IC50 on Recombinant ROCK1 was 1.8 nM; at Recombinant ROCK2, 0.76 nM.
